“And” between values parts separate entries of the source, which are not always exact repeats. Equal values may be shown once. Read-outs that look alike come from different tables or passages of the source. Marks after values point to notes of the source that are not given here. A value given as a limit tells only on which side of the number the result lay.

Here are results for five molecules from US9346741B2, “Polyamine transport selective therapeutic agents with enhanced stability” (University of Central Florida Research Foundation, Inc., priority 2012, dated 2016).

In data set [1] the test system is 60 human cancer cell lines. In words: NCI 60 cell-line screen. The format is cell-based. Particulars: 10 μM; 48 h. On the procedure: Once compounds 6a-b, 7a-b, and 8a-8b were evaluated in CHO and CHO-MG*, these compounds were sent to the National Cancer institute (NCI) to conduct its 60 cell-line screen to determine if these compounds could also be potent anti-cancer agents for human cancer cell lines. […] As shown in FIGS. 2A-2C, dose response curves were generated based upon the 60 cell-line screen at different molar concentrations of each PTS targeting agent 6b, 7b, and 8b.
To generate FIGS. 2A-2C, the respective drug was dosed at 10 μM into each human cancer cell line and cell viability was assessed after a 48 h incubation at 37° C. in an environment of 5% CO2, 95% air and 100% relative humidity. A more descriptive methodology can be found at the NCI website: http://dtp.nci.nih.gov/branches/btb/ivclsp.html. Cell lines which gave bar graphs which extend to the right of the central line were more sensitive to the drug than cell lines which extended to the left of the center line.

For data set [2], the system named is polyamine transport system (PTS), CHO-MG* vs CHO cells. In words: CHO-MG*/CHO IC50 ratio, a measure of PTS selectivity. The format is cell-based, Chinese hamster. The settings on record: 48 h; for IC50 ratio w/AG (CHO-MG*/CHO): with 1 mM AG; for IC50 ratio w/o AG (CHO-MG*/CHO): without AG. The source says: Compounds with high CHO-MG/CHO IC50 ratios are considered PTS selective.
(§1) CHO cells were chosen along with a mutant cell line (CHO-MG*) to comment on how the synthetic conjugates gain access to the cells.^2c-e, 6 As discussed earlier, the CHO-MG cell line is polyamine-transport deficient and represents a model for alternative modes of entry (other than PTS) including passive diffusion or use of another transporter. The CHO cell line on the other hand, represents cells with high polyamine transport activity.^7, 10c A comparison of toxicity in these two CHO cell lines allowed for a screen that would detect selective use of the polyamine transporter. This is seen where high utilization of the PTS would be very toxic to CHO cells, however, there would not be the same level of toxicity found in CHO-MG cells.^2c-e, 6 Ultimately, a CHO-MG/CHO IC50 can be determined where a high ratio would be achieved for highly PTS selective compounds.

Data set [3] has as its system MALME-3M cells. In words: Cytotoxicity IC50 determination (MTS) in MALME-3M cells. The format is cell-based, human. On the procedure:
Armed with this insight, compounds 5a-8b were evaluated in the MALME-3M (melanoma) cell line and its non-cancerous counterpart MALME-3 obtained originally from the same patient. These matched cell lines provided a method to assess PTS selectivity for the cancer line (MALME-3M) over the non-cancerous cell line (MALME-3). […]
(§2) CHO and CHO-MG cells were grown in RPMI 1640 medium supplemented with 10% fetal calf serum and 1% penicillin/streptomycin. Note: the media must contain L-proline (2 μg/mL) for proper growth of the CHO-MG cells. MALME-3M cells were grown in RPMI 1640 medium supplemented with 10% FBS and 1% penicillin/streptomycin. All cells were grown at 37° C. under a humidified 5% CO2 atmosphere Aminoguanidine (1 mM) was added to the growth medium to prevent oxidation of the drugs by the enzyme (bovine serum amine oxidase) present in calf serum. Cells in early to mid-log phase were used.
(§3) Cell growth was assayed in sterile 96-well microtiter plates (Costar 3599, Corning, N.Y., USA). CHO and CHO-MG* cells were plated at 10,000 cells/mL. MALME-3M and MALME-3 cells were plated at 5,000 cells/mL. Drug solutions (10 μL per well) of appropriate concentration were added after an overnight incubation for each CHO cell line (90 μL). 48 h MALME-3M experiments were conducted using 10% Nu-Serum IV, and 96 h MALME-3M and MALME-3 experiments were conducted using 10% FBS. After exposure to the drug for 48 h (CHO, CHO-MG*, and MALME-3M) or 96 h (MALME-3M and MALME-3), cell growth was determined by measuring formazan
(§4) formation from 3-(4,5-dimethylthiazol-2-yl)-5-(3-carboxymethoxyphenyl)-2-(4-sulphenyl)-2H-tetrazolium) inner salt (MTS) using a SynergyMx Biotek microplate reader for absorbance ([…]) measurements.^24

For data set [4], the system named is MALME-3M (melanoma) vs MALME-3 (normal) cells. In words: MALME-3/MALME-3M IC50 ratio, a measure of selectivity. It counts as cell-based, human. The settings on record: 96 h; 1 mM AG. The source says:
These matched cell lines provided a method to assess PTS selectivity for the cancer line (MALME-3M) over the non-cancerous cell line (MALME-3).

Data set [5] relates to CHO-MG* cells. Briefly: Cytotoxicity IC50 determination (MTS) in polyamine-transport-deficient CHO-MG* cells. It counts as cell-based, Chinese hamster. Particulars: 48 h at 37° C.
Excerpt: as §1
(§5) CHO and CHO-MG cells were grown in RPMI 1640 medium supplemented with 10% fetal calf serum and 1% penicillin/streptomycin. Note: the media must contain L-proline (2 μg/mL) for proper growth of the CHO-MG cells. MALME-3M cells were grown in RPMI 1640 medium supplemented with 10% FBS and 1% penicillin/streptomycin. […] Cells in early to mid-log phase were used.
as §3, §4

Data set [6] concerns MALME-3 cells. Briefly: Cytotoxicity IC50 determination (MTS) in MALME-3 cells. The format is cell-based, human. The settings on record: 96 h at 37° C., 1 mM AG, 10% FBS. On the procedure:
Armed with this insight, compounds 5a-8b were evaluated in the MALME-3M (melanoma) cell line and its non-cancerous counterpart MALME-3 obtained originally from the same patient. These matched cell lines provided a method to assess PTS selectivity for the cancer line (MALME-3M) over the non-cancerous cell line (MALME-3).
as §2, §3, §4

In data set [7] the test system is CHO cells. In words: cells. Particulars: for IC50: 48 h at 37° C.; for MTD (μM) in CHO (maximum tolerated dose): hamster. It counts as cell-based.
Excerpt: as §1, §5, §3, §4

The test system of data set [8] is 60 human cancer cell lines. Briefly: NCI 60 cell-line screen. It counts as cell-based. The settings on record: 5-dose assay.
The subject of data set [9] is polyamine transport system (PTS), CHO-MG vs CHO cells. Particulars: original CHO-MG line; cited from earlier work.
Data set [10] has as its system MALME-3 cells. Briefly: Spermidine rescue experiments in MALME-3 cells. It counts as cell-based, human. The settings on record: dosed near the IC50 value; increasing spermidine. On the procedure: In order to validate that these drugs were toxic due to their use of the polyamine transport system, spermidine rescue experiments were conducted. Spermidine is a native polyamine and uses the PTS for cell entry. High concentrations of spermidine should outcompete the PTS-targeting drugs for cell entry. In this regard, spermidine when dosed at a non-toxic concentration should rescue the cells from the toxic effects of the PTS targeting agents. […] Both the anthryl and naphthyl systems when dosed at their IC50 concentrations gave >92% viability at 10 μM spermidine validating their use of the PTS. Rescue was observed from the initial 50% viability to >92% viability after co-dosing 10 μM spermidine.
As stated above, in an effort to determine if the cytotoxicities seen for compounds 6-8 were polyamine transport related, MALME-3M and MALME-3 were dosed near the IC50 value of each drug. These cells were also treated with increasing amounts of spermidine to see if it could outcompete compounds 6-8 for cellular entry and thus rescue the cells. […] This supports the premise that these compounds gain access to these cells primarily via the PTS. […] Since the viability of MALME-3M cells could be partially rescued by spermidine, compounds 8a and 8b may gain access via the PTS and via non-PTS related pathway(s).

For data set [11], the system named is polyamine transport system (PTS) in L1210 cells. The settings on record: cited from earlier work.
Data set [12] is described as follows: in vitro. The format is cell-based. Particulars: Chinese hamster.
Excerpt: as §1, §5, §3, §4

Where [13] appears, read: 48 h at 37° C., 1 mM AG, 10% Nu-Serum IV, read-out: MALME-3M IC50 (μM) w/ AG.
The mark [14] stands for this setting: 48 h at 37° C., without AG, 10% Nu-Serum IV, read-out: MALME-3M IC50 (μM) w/o AG.
[15] abbreviates: 96 h at 37° C., 1 mM AG, 10% FBS, read-out: MALME-3M IC50.
[16] abbreviates: 1 mM AG 24 h prior to drug addition, read-out: CHO-MG* IC50 (μM) w/AG.
[17] abbreviates: without AG, read-out: CHO-MG* IC50 (μM) w/o AG.
Where [18] appears, read: 1 mM AG 24 h prior to drug addition, read-out: CHO IC50 (μM) w/AG.
[19] abbreviates: without AG, read-out: CHO IC50 (μM) w/o AG.
Setting [20] is: Cricetulus griseus, CHO-MG, Table 4, 1 mM AG 24 h prior to drug addition, read-out: CHO-MG* IC50.
The mark [21] stands for this setting: Cricetulus griseus, CHO, Table 4, 1 mM AG 24 h prior to drug addition, read-out: CHO IC50.

Turning to `CNCCCCNCCCCNCc1ccc(CNCCCCNCCCCNC)c2ccccc12` [Compound 7b, N1,N1′-(Naphthalene-1,4-diylbis(methylene))bis(N4-(4-(methylamino)butyl)butane-1,4-diamine)], the “effect on breast cancer cell lines in the NCI 60 cell-line screen” value in data set [1] is “exhibited an anti-proliferation effect in breast cancer cell lines, particularly the T-47D cell line”. Also, the “effect on melanoma cell lines in the NCI 60 cell-line screen” value in [1] is “inhibited the proliferation of melanoma cell lines, particularly the MALME-3M cell line”. Moreover, the “IC50 ratio w/AG (CHO-MG*/CHO)” value in data set [2] was over 2272. Further, the “IC50 ratio w/o AG (CHO-MG*/CHO)” value in data set [2] is reported as over 2564. The IC50 is 0.1 µM in data set [3] (Homo sapiens, Malme-3M, 48 h at 37° C., 1 mM AG, 10% Nu-Serum IV, read-out: MALME-3M IC50 (μM) w/ AG); 0.17 µM in data set [3] (Homo sapiens, Malme-3M, 48 h at 37° C., without AG, 10% Nu-Serum IV, read-out: MALME-3M IC50 (μM) w/o AG); 0.014 µM in data set [3] (Homo sapiens, Malme-3M, 96 h at 37° C., 1 mM AG, 10% FBS, read-out: MALME-3M IC50); over 100 µM in data set [5] (Cricetulus griseus, CHO-MG, 1 mM AG 24 h prior to drug addition, read-out: CHO-MG* IC50 (μM) w/AG); over 100 µM in [5] (Cricetulus griseus, CHO-MG, without AG, read-out: CHO-MG* IC50 (μM) w/o AG); 820 nM in data set [6] (Homo sapiens, MALME-3). Further, the IC50 in data set [7] (Cricetulus griseus, CHO, 1 mM AG 24 h prior to drug addition, read-out: CHO IC50 (μM) w/AG) came to 0.044 µM; in data set [7] (Cricetulus griseus, CHO, without AG, read-out: CHO IC50 (μM) w/o AG), 0.039 µM. In data set [4], the “MALME-3/MALME-3M IC50 ratio” value amounted to 59. For the same molecule, the “NCI 5-dose assay, MALME-3M cell line” value in data set [8] was “dose dependent response”.

On to `Cl.NCCCCNCCCCNCc1c2ccccc2cc2ccccc12` [Compound 5a, reference compound], for which, in [2], the “IC50 ratio w/AG (CHO-MG*/CHO)” value is 43 and 42.8. Also, in data set [2], the “IC50 ratio w/o AG (CHO-MG*/CHO)” value came out at 1.4. Moreover, the IC50 in data set [3] (setting [13]) was 0.48 µM; in data set [3] (setting [14]), 0.29 µM; in data set [3] (setting [15]), 0.27 µM; in data set [5] (setting [16]), 13.7 µM; in data set [5] (setting [17]) it was 2.2 µM; in [6], 830 nM. In addition, the IC50 in data set [7] (setting [18]) turned out to be 0.32 µM; in data set [7] (setting [19]), 1.5 µM. Moreover, the “MALME-3/MALME-3M IC50 ratio” value in data set [4] is 3.1. The “CHO-MG/CHO IC50 ratio” value in data set [9] was 150 and 148.

On to `Cl.NCCCCNCCCCNCc1ccc(CNCCCCNCCCCN)cc1` [Compound 8a], for which, in [10], the “rescue by exogenous spermidine in MALME-3” value is given as “complete rescue”. Moreover, the “IC50 ratio w/AG (CHO-MG*/CHO)” value in [2] is given as 727. Also, the “IC50 ratio w/o AG (CHO-MG*/CHO)” value in data set [2] came to 5.5. In addition, the IC50 in data set [3] (setting [13]) worked out at 0.01 µM; in [3] (setting [14]), 0.4 µM; in [3] (setting [15]), 0.005 µM; in data set [5] (setting [16]), 19.6 µM; in data set [5] (setting [17]), 56.5 µM; in [6], 90 nM. Moreover, the IC50 came to 0.027 µM in [7] (setting [18]) and 10.3 µM in [7] (setting [19]). Moreover, the “MALME-3/MALME-3M IC50 ratio” value in data set [4] is 18. Further, the inhibition constant Ki is 520 nM in data set [11] (read-out: Ki in L1210 cells) and 490 ± 20 nM in data set [11] (unit inferred, read-out: Ki values in L1210 cells).

For the molecule `NCCCCNCCCCNCCCCNCc1cccc(CNCCCCNCCCCNCCCCN)c1` [Compound 34b, N^1,N^1′-(1,3-phenylenebis(methylene))bis(N^4-(4-((4-aminobutyl)amino)butyl)butane-1,4-diamine)], in [2], the “IC50 ratio w/AG (CHO-MG*/CHO)” value turned out to be 335. Further, the IC50 amounted to 13.4 µM in [5] (setting [20]) and 0.04 µM in data set [7] (setting [21]). The “MTD (μM) in CHO (maximum tolerated dose)” value in data set [7] was 0.01^g μM. Moreover, the viability at 48 h, 0.01 μM in data set [12] was about 90%.

For `NCCCCNCCCCNCc1cccc(CNCCCCNCCCCN)c1` [Compound 34a, N^1,N^1′-(1,3-phenylenebis(methylene))bis(N^4-(4-aminobutyl)butane-1,4-diamine)], the “IC50 ratio w/AG (CHO-MG*/CHO)” value in [2] is recorded as 1072. For the same molecule, the results for the IC50 in data set [5] (setting [20]) and in data set [7] (setting [21]) were 30 µM and 0.028 µM, respectively. Moreover, the “MTD (μM) in CHO (maximum tolerated dose)” value in [7] is on record as 0.01^f μM. The viability at 48 h, 0.01 μM in data set [12] was about 90%.
